Molecules are shown by their SMILES.

What is called melting point is the temperature of the solid-liquid transition. Regarding `CCn1ncc2c(-c3cncc(C)c3)c(CCC(=O)O)c(C(C)C)nc21` [Example 194, 3-[1-Ethyl-6-isopropyl-4-(5-methyl-3-pyridyl)-1H-pyrazolo[3,4-b]pyridin-5-yl]propanoic acid], the melting point lay within 203 to 205 °C.

`CCn1ncc2c(-c3cncc(C)c3)c(CCC(=O)O)c(C)nc21` [Example 94, 3-[1-Ethyl-6-methyl-4-(5-methyl-3-pyridyl)-1H-pyrazolo[3,4-b]pyridin-5-yl]propanoic acid] came in with a melting point of 179 to 181 °C.

Compound `CCn1ncc2c(-c3cncc(Br)c3)c(/C=C/C(=O)O)c(COC)nc21` [Example 226, (2E)-3-[4-(5-Bromo-3-pyridyl)-1-ethyl-6-(methoxymethyl)-1H-pyrazolo[3,4-b]pyridin-5-yl]acrylic acid] displayed a melting point of 180 to 182 °C.

With `CCn1ncc2c(-c3ccc(Cl)s3)c(/C=C/C(=O)O)c(-c3ccccc3)nc21` [Example 207, (2E)-3-[4-(5-Chloro-2-thienyl)-1-ethyl-6-phenyl-1H-pyrazolo[3,4-b]pyridin-5-yl]acrylic acid], the melting point lay in the range of 187 to 188 °C.

With `CCn1ncc2c(-c3cncc(C)c3)c(C(=O)NCc3ccc(OC)cc3)c(-c3ccccc3)nc21` [Example 65, 1-ethyl-N-(4-methoxybenzyl)-4-(5-methyl-3-pyridyl)-6-phenyl-1H-pyrazolo[3,4-b]pyridine-5-carboxamide], the melting point was 203 to 204 °C.

`CCOC(=O)c1c(C)nc2c(cnn2CC)c1-c1ccnc(Cl)c1` [Example 3, Ethyl 4-(2-chloro-4-pyridyl)-1-ethyl-6-methyl-1H-pyrazolo[3,4-b]pyridine-5-carboxylate]: the melting point lay within 109 to 110 °C.

Compound `CCn1ncc2c(-c3cncc(C)c3)c(/C=C/C(=O)O)c(COCC3CC3)nc21` [Example 87, (2E)-3-[6-[(Cyclopropylmethoxy)methyl]-1-ethyl-4-(5-methyl-3-pyridyl)-1H-pyrazolo[3,4-b]pyridin-5-yl]acrylic acid] displayed a melting point of 187 to 189 °C.

On to `CCn1ncc2c(-c3cncc(C)c3)c(CCC(=O)O)c(C3CC3)nc21` [Example 343, 3-[6-Cyclopropyl-1-ethyl-4-(5-methyl-3-pyridyl)-1H-pyrazolo[3,4-b]pyridin-5-yl]propanoic acid], for which the melting point was in the range of 205 to 207 °C.

Compound `CCC(CC)c1nc2c(cnn2CC)c(-c2cncc(C)c2)c1CCC(=O)O` [Example 346, 3-[1-Ethyl-6-(1-ethylpropyl)-4-(5-methyl-3-pyridyl)-1H-pyrazolo[3,4-b]pyridin-5-yl]propanoic acid] came in with a melting point of 144 to 145 °C.

As to `CCn1ncc2c(-c3cncc(C)c3)c(/C=C/C(=O)O)c(C3CC3)nc21` [Example 214, (2E)-3-[6-Cyclopropyl-1-ethyl-4-(5-methyl-3-pyridyl)-1H-pyrazolo[3,4-b]pyridin-5-yl]acrylic acid], the melting point was 221 to 222 °C.

For `CCn1ncc2c(-c3ccccc3)c(/C=C/C(=O)O)c(-c3ccccc3)nc21` [Example 211, (2E)-3-(1-Ethyl-4,6-diphenyl-1H-pyrazolo[3,4-b]pyridin-5-yl)acrylic acid], the melting point was > 250 °C.

`CCOCc1nc2c(cnn2CC)c(-c2cncc(C)c2)c1/C=C/C(=O)O` [Example 234, (2E)-3-[6-(Ethoxymethyl)-1-ethyl-4-(5-methyl-3-pyridyl)-1H-pyrazolo[3,4-b]pyridin-5-yl]acrylic acid] yielded a melting point of 187 to 188 °C.

In turn, `CCn1ncc2c(-c3cncc(C)c3)c(C#N)c(C)nc21` [Example 74, 1-Ethyl-6-methyl-4-(5-methyl-3-pyridyl)-1H-pyrazolo[3,4-b]pyridine-5-carbonitrile] registered a melting point of 160 to 161 °C.

Consider `CCn1ncc2c(-c3ccnc(C)c3)c(/C=C/C(=O)O)c(C(C)C)nc21` [Example 242, (2E)-3-[1-Ethyl-6-isopropyl-4-(2-methyl-4-pyridyl)-1H-pyrazolo[3,4-b]pyridin-5-yl]acrylic acid], for which the melting point lay within 260 to 262.5 °C.

As for `Cc1cncc(-c2c(CCC(=O)O)c(C)nc3c2cnn3C)c1` [Example 97, 3-[1,6-Dimethyl-4-(5-methyl-3-pyridyl)-1H-pyrazolo[3,4-b]pyridin-5-yl]propanoic acid], the melting point fell in the range of 205 to 207 °C.

`CCn1ncc2c(-c3cncc(C)c3)c(C(=O)NCC3CCCCC3)c(-c3ccccc3)nc21` [Example 247, N-(Cyclohexylmethyl)-1-ethyl-4-(5-methyl-3-pyridyl)-6-phenyl-1H-pyrazolo[3,4-b]pyridine-5-carboxamide] gave a melting point of 197 to 199 °C.

On to `CCn1ncc2c(-c3cncc(C)c3)c(/C=C/C(=O)O)c(C(C)C)nc21` [Example 212, (2E)-3-[1-Ethyl-6-isopropyl-4-(5-methyl-3-pyridyl)-1H-pyrazolo[3,4-b]pyridin-5-yl]acrylic acid], for which the melting point was in the range of 247 to 248 °C.

`CCn1ncc2c(-c3cncc(C)c3)c(/C=C/C(=O)O)c(C)nc21` [Example 85, (2E)-3-[1-Ethyl-6-methyl-4-(5-methyl-3-pyridyl)-1H-pyrazolo[3,4-b]pyridin-5-yl]acrylic acid] yielded a melting point of 239 to 241 °C.

Regarding `CCn1ncc2c(-c3cncc(C)c3)c(/C=C/C(=O)O)c(CC(C)(C)C)nc21` [Example 236, (2E)-3-[6-(2,2-Dimethylpropyl)-1-ethyl-4-(5-methyl-3-pyridyl)-1H-pyrazolo[3,4-b]pyridin-5-yl]acrylic acid], the melting point is 216 to 217.5 °C.

Compound `CCn1ncc2c(-c3cncc(Cl)c3)c(/C=C/C(=O)O)c(COC)nc21` [Example 231, (2E)-3-[4-(5-chloro-3-pyridyl)-1-ethyl-6-(methoxymethyl)-1H-pyrazolo[3,4-b]pyridin-5-yl]acrylic acid] returned a melting point of 187 to 188 °C.

With `CCn1ncc2c(-c3ccnc(Cl)c3)c(/C=C/C(=O)O)c(-c3ccccc3)nc21` [Example 204, (2E)-3-[4-(2-Chloro-4-pyridyl)-1-ethyl-6-phenyl-1H-pyrazolo[3,4-b]pyridin-5-yl]acrylic acid], the melting point is > 250 °C.

For `CCn1ncc2c(-c3cncc(C)c3)c(CCC(=O)O)c(-c3ccccc3)nc21` [Example 98, 3-[1-Ethyl-4-(5-methyl-3-pyridyl)-6-phenyl-1H-pyrazolo[3,4-b]pyridin-5-yl]propanoic acid], the melting point lay in the range of 235 to 237 °C.

The compound `Cc1cncc(-c2c(/C=C/C(=O)O)c(C)nc3c2cnn3C)c1` [Example 90, (2E)-3-[1,6-Dimethyl-4-(5-methyl-3-pyridyl)-1H-pyrazolo[3,4-b]pyridin-5-yl]acrylic acid] registered a melting point of 269 to 272 °C.

`CCC(CC)NC(=O)c1c(-c2ccccc2)nc2c(cnn2CC)c1-c1cncc(C)c1` [Example 245, 1-Ethyl-N-(1-ethylpropyl)-4-(5-methyl-3-pyridyl)-6-phenyl-1H-pyrazolo[3,4-b]pyridine-5-carboxamide]: the melting point was in the range of 170 to 172 °C.

`CCn1ncc2c(-c3cncc(C)c3)c(CCC(=O)O)c(C#N)nc21` [Example 100, 3-[6-Cyano-1-ethyl-4-(5-methyl-3-pyridyl)-1H-pyrazolo[3,4-b]pyridin-5-yl]propanoic acid] came in with a melting point of 209 to 210 °C.

The values above are taken from patent US7459451B2, “Pyrazolopyridine derivatives” (Astellas Pharma Inc., priority 2004, dated 2008).
